This is an account of results in publication PMC10988555, “Exploiting Co(III)-Cyclopentadienyl Complexes To Develop Anticancer Agents” (Inorganic Chemistry, 2024).

The test system of test [1] is A2780 cell line. The experiment in a line: Mitochondrial membrane potential (ΔΨM), JC-1 flow cytometry. To be noted: A2780, IC50, 48 h, JC-1 red/green ratio vs DMSO. In kind it is cell-based, human. As to the method: ΔΨM was evaluated in the A2780 cell line using the JC-1 Mitochondrial Membrane Potential Assay Kit (Abnova, Taipei, Taiwan). Cells were seeded at a density of 2 × 10^5 cells/well in 6-well plates and incubated for 24 h. […] After an incubation of 48 h, the cells were washed with PBS 1×, detached with TE, and incubated with JC-1 in RPMI medium without phenol red + 5% (v/v) FBS for 20 min at 37 °C. The cells were then resuspended in the same medium and the ΔΨM was evaluated with the Attune acoustic focusing flow cytometer (ThermoFisher Scientific) and respective software.
For orientation: In flow cytometry, cells or beads pass a laser one at a time.

Test [2] concerns Fibroblasts. The experiment in a line: Cell migration (scratch) assay. In kind it is cell-based, human. To be noted: IC50 concentrations, 24 h, normalized against DMSO (100%). As to the method:
Fibroblasts were seeded in 24-well plates at a density of 4 × 10^5 cells/mL and grown in the same conditions as described previously until a confluent monolayer was obtained. […] Images of the Fibroblasts were captured right after the exposure (0 h) to the complexes and after 24 h of incubation at 37 °C and 5% (v/v) CO2 in a humidified atmosphere, using CytoSMART Lux2 Live Cell Imager (Axion biosystems, USA) and Ti–U Eclipse Inverted microscope (Nikon Instruments, Japan). Images were analyzed with the ImageJ MRO Wound Healing Tool or with the scratch assay measurement of the CytoSMART cloud portal for the Lux system.

In test [3] the test system is A2780 cell line. Put plainly: Apoptosis induction, Annexin V/PI flow cytometry. It counts as cell-based, human. To be noted: A2780, IC50 of each complex, 48 h. How it is done:
The induction of apoptosis was evaluated by flow cytometry in the A2780 cell line, through the Alexa Fluor Annexin V/Dead Cell Apoptosis Kit (ThermoFisher Scientific). A2780 cells were seeded at a density of 2 × 10^5 cells/well in 6-well plates and incubated for 24 h. After that time, the medium was replaced by medium mixed with complexes 2–4 at their IC50. […] After a period of 48 h of incubation, cells were washed with PBS 1× and TE was used to detach the cells. The cells were resuspended in annexin-binding buffer 1× and incubated for 15 min at RT with Alexa Fluor 488 annexin V and Propidium Iodide. All samples were analyzed by an Attune Acoustic Focusing Flow Cytometer (ThermoFisher Scientific) and respective software.

Test [4] deals with MDA-MB-231 (human breast cancer) cell line. The experiment in a line: Antiproliferative activity, MTS assay, MDA-MB-231. To be noted: 48 h exposure. It counts as cell-based. How it is done: (§1) Human colorectal carcinoma cell line (HCT116), human breast cancer cell lines (MDA-MB-231 and MCF-7), and normal human primary dermal fibroblasts neonatal (PCS-201-010) cell line were grown in DMEM (Dulbecco’s modified Eagle’s medium) (Invitrogen Corp., Grand Island, NY, USA) supplemented with 10% (v/v) fetal bovine serum and 1% (v/v) antibiotic/antimycotic solution (Invitrogen Corp.). The human ovarian carcinoma (A2780) cell line was cultivated using RPMI (Roswell Park Memorial Institute) medium supplemented as in DMEM medium. The supplemented medium is named a complete medium. Cells were grown in an incubator with a humidified atmosphere at 5% (v/v) CO2 and 37 °C. All cell lines were purchased from ATCC (ATCC, American Type Culture Collection).
(§2) The evaluation of the cytotoxic potential of complexes 1–4 was obtained through in vitro measurements of the antiproliferative activity of these complexes. Cells were plated in 96-well plates at 7.5 × 10^4 cells/mL and incubated at 37 °C with 5% (v/v) CO2. After 24 h, the culture medium was replaced with fresh medium (100 μL) containing 0.1–50 μM of the different complexes and incubated for 48 h in tumor cell lines or containing 0.1–100 μM of the different complexes and incubated for 48 h in fibroblasts. […] The fibroblast cell line was used as a control of the cytotoxicity of the complexes for healthy cells. Cell viability was evaluated using Cell Titer 96 Aqueous Non-Radioactive Cell Proliferation Assay (Promega, Madison, WI, USA) using 3-(4,5-dimethylthiazol-2-yl)-5-(3-carboxymethoxyphenyl)-2-(4-sulfophenyl)-2H-tetrazolium inner salt (MTS), as described previously.[60] In metabolically active cells, enzymes present in the mitochondria catalyze a reaction in which NADPH/NADH is produced. These enzymes reduce the MTS reagent into a brownish product, Formazan, which can be quantified by measuring the absorbance at 490 nm. The quantity of formazan produced is directly proportional to the number of viable cells in the culture. This quantification was executed with a Biorad microplate reader Model 680 (Bio-Rad, Hercules, CA, USA). Half maximal inhibitory concentration (IC50) was calculated using GraphPad Prism 6 (GraphPadSoftware). We have calculated the ratio between the IC50 of fibroblasts and the IC50 of HCT116, A2780, MDA-MB-231, or MCF-7 cell lines for complexes 1–4 that was named herein as the Selectivity index (SI). To ensure the solubility of the complexes in all biological assays, complex solutions were freshly prepared and well solubilized before addition to the cells.
(Tetrazolium dyes change colour on reduction, which living cells bring about.)

Test [5] relates to MCF-7 (human breast cancer) cell line. Put plainly: Antiproliferative activity, MTS assay, MCF-7. It counts as cell-based. To be noted: for IC50: 48 h exposure, MTS assay. How it is done: as §1, §2
Test [6] relates to A2780 cell line. The experiment in a line: Autophagy induction, flow cytometry. In kind it is cell-based, human. To be noted: for levels of autophagy: A2780, 48 h, complexes at IC50, DOX 0.4 μM, cisplatin 5 μM, rapamycin 500 nM for 15 h; for increase of autophagy compared to the control: A2780, IC50, 48 h, vs DMSO 0.1%. How it is done:
The autophagy induced by complexes 2–4 was evaluated using the Autophagy Assay Kit (ab139484, Abcam, Cambridge, United Kingdom) according to the manufacturer’s instructions. For this, the A2780 cell line was seeded at a density of 2 × 10^5 cells/well in 6-well plates and incubated for 24 h at the conditions mentioned before. […] The positive control Rapamycin at 500 nM was incubated for only 15 h. After 48 h incubation, the cells were washed with PBS 1×, detached with TE, and treated with the Autophagy detection kit (Abcam, Cambridge, UK) according to the manufacturer’s instructions. The evaluation of autophagy induction was done through the Attune acoustic focusing flow cytometer (ThermoFisher Scientific) and respective software.

In test [7] the test system is ROS in A2780 cell line. The experiment in a line: Production of reactive oxygen species (H2DCF-DA flow cytometry). It counts as cell-based, human. To be noted: A2780, IC50, 48 h, vs DMSO. As to the method: The production of ROS was evaluated in the A2780 cell line, seeded in 6-well plates at a density of 2 × 10^5 cells/well, and incubated for 24 h at the same conditions as described above. […] Later, cells were washed with PBS 1×, detached from the wells with TE, and incubated with […] of 2′,7′-dichlorodihydrofluorescein diacetate (H2DCF-DA) (ThermoFisher Scientific, Waltham, MA, USA) in PBS 1× for 20 min at 37 °C. The data were obtained through an Attune acoustic focusing flow cytometer (ThermoFisher Scientific) and respective software.

Test [8] has as its system HCT116 (human colorectal carcinoma) cell line. Put plainly: Antiproliferative activity, MTS assay, HCT116. It counts as cell-based. To be noted: for IC50: 48 h exposure, MTS assay; for Selectivity index (SI), HCT116: IC50 fibroblasts/IC50 HCT116, values with * calculated taking fibroblast IC50 as 100 μM (minimal value). How it is done: as §1, §2

For `Cc1ccnc(-c2cc(C)ccn2)c1.O=S(=O)([O-])C(F)(F)F.O=S(=O)([O-])C(F)(F)F.[Co+3].c1cc[cH-]c1.c1ccc(P(c2ccccc2)c2ccccc2)cc1` [Complex 2, [Co(η^5-C5H5)(PPh3)(Me2bipy)][(CF3SO3)2]], the “mitochondrial membrane potential (ΔΨM) change” value in test [1] is recorded as “low (without statistical significance) ΔΨM”. This compound also had a cellular remission in test [2] of 80.2%. In test [3], the “percentage of cells in initial apoptosis” value amounted to 5.0%, the “percentage of cells in late apoptosis” value is listed as 0.8%, the “percentage of cells in necrosis” value stood at 7.8% and the total apoptosis levels was determined as 5.8%. Moreover, in test [4], the 50% inhibitory concentration (IC50) – broadly, the concentration that inhibits the measured activity by half – is over 50 µM. Moreover, in test [5], the IC50 is over 50 µM. In test [6], the levels of autophagy turned out to be 81.5% and the “increase of autophagy compared to the control” value (“increase of autophagy” below) is given as 1.9 ×. In test [7], the “ROS production relative to control” value was “only a slight increase in the % of ROS”. For the same compound, in test [8], inhibition was half-maximal at 15.3 ± 0.2 µM (IC50) and the “Selectivity index (SI), HCT116” value was 6.5*.
`O=S(=O)([O-])C(F)(F)F.O=S(=O)([O-])C(F)(F)F.[Co+3].c1cc[cH-]c1.c1ccc(P(c2ccccc2)c2ccccc2)cc1.c1cnc2c(c1)ccc1cccnc12` [Complex 3, [Co(η^5-C5H5)(PPh3)(phen)][(CF3SO3)2]]: the “mitochondrial membrane potential (ΔΨM) change” value in test [1] was “low (without statistical significance) ΔΨM”. The compound further gave a cellular remission in test [2] of 76.9%. Also, in test [3], the “percentage of cells in initial apoptosis” value is listed as 5.0%, the “percentage of cells in late apoptosis” value came out at 0.9%, the “percentage of cells in necrosis” value is recorded as 6.1% and the total apoptosis levels amounted to 5.9%. In test [4], this compound had an IC50 of over 50 µM. Besides, in test [5], the IC50 was over 50 µM. For the same compound, the “increase of autophagy” value in test [6] stood at 1.5 ×. In test [7], the “ROS production relative to control” value is 1.7 ×. Moreover, in test [8], 13.4 ± 0.1 µM corresponded to half-maximal inhibition (IC50) and the “Selectivity index (SI), HCT116” value is given as 7.5*.
In the case of `Nc1cc2cccnc2c2ncccc12.O=S(=O)([O-])C(F)(F)F.O=S(=O)([O-])C(F)(F)F.[Co+3].c1cc[cH-]c1.c1ccc(P(c2ccccc2)c2ccccc2)cc1` [Complex 4, [CoCp(PPh3)(NH2phen)][(CF3SO3)2]], the “mitochondrial membrane potential (ΔΨM) change” value in test [1] was “an increase in ΔΨM was observed”. The compound also displayed a cellular remission in test [2] of 78.1%. In test [3], the “percentage of cells in initial apoptosis” value is listed as 5.6%, the “percentage of cells in late apoptosis” value is 0.9%, the “percentage of cells in necrosis” value was determined as 5.9% and the total apoptosis levels came to 6.5%. For the same compound, the IC50 in test [4] was over 50 µM. For the same compound, the concentration for half-maximal inhibition (IC50) in test [5] was determined as 10.2 ± 0.1 µM. Also, the “Selectivity index (SI), MCF-7” value in test [5] (IC50 fibroblasts/IC50 MCF-7, value with * calculated taking fibroblast IC50 as 100 μM (minimal value)) was 9.8*. Moreover, in test [6], the levels of autophagy is recorded as 95.5% and the “increase of autophagy” value amounted to 2.2 ×. In test [7], the “ROS production relative to control” value is 1.9 ×. In addition, in test [8], the concentration for half-maximal inhibition (IC50) was 14.1 ± 0.2 µM and the “Selectivity index (SI), HCT116” value is reported as 7.1*.
